Blank lines part the entries; values can stand above or below the molecule they belong to.
What was measured:
[1] = biological target: T1, Ankyrin repeat and protein kinase domain-containing protein 1 (Homo sapiens) (UniProt Q8NFD2); assay: Selectivity interaction (KinomeScan (DiscoverX)) EUB0001049a ANKK1; conditions: at 1 µM
T1 sequence (whole entry): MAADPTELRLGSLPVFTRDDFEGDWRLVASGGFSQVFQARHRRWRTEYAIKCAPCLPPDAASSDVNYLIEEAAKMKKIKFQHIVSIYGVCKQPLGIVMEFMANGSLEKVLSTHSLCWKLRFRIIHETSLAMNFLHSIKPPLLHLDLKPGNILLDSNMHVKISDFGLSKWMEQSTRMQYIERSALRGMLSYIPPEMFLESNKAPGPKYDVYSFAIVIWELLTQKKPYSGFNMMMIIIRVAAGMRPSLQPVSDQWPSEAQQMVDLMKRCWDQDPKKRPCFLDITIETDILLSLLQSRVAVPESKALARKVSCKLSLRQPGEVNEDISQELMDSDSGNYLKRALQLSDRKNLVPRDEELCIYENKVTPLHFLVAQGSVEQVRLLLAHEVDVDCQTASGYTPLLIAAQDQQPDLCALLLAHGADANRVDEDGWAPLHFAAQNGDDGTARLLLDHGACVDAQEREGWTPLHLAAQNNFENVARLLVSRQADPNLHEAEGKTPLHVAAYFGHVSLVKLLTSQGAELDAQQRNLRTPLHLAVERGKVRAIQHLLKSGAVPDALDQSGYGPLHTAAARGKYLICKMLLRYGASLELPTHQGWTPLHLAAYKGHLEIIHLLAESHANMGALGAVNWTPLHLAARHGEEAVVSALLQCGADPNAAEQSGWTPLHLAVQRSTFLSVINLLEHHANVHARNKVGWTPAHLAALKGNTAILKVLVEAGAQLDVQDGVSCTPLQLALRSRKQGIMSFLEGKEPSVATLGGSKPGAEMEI

[2] = biological target: T2, cGMP-dependent protein kinase 1 (Homo sapiens) (UniProt Q13976); assay: Selectivity interaction (Ambit KINOMEscan and KiNATiv profiling in Jurkat cells) EUB0000090b PRKG1; assay type: cell-based; conditions: at 1 µM
T2 sequence (whole entry): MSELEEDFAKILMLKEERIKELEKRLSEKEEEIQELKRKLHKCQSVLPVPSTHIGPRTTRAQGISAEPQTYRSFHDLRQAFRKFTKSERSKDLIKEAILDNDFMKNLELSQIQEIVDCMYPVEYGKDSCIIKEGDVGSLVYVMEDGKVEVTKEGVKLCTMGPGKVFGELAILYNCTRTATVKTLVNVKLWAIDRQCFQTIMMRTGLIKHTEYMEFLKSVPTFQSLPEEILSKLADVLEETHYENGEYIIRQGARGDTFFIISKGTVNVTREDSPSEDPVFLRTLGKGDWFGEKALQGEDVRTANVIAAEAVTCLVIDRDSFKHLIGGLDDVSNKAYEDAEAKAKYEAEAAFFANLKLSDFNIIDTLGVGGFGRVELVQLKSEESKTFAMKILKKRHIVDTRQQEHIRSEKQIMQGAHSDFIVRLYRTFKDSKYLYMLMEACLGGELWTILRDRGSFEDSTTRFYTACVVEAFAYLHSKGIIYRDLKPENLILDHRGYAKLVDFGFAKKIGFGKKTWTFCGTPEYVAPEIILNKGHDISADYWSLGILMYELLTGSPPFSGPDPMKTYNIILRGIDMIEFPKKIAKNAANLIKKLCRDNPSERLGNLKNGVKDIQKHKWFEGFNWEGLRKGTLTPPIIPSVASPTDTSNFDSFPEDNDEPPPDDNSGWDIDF

[3] = biological target: Protein-tyrosine kinase 2-beta (Homo sapiens) (UniProt Q14289); assay: Selectivity interaction (Ambit KINOMEscan and KiNATiv profiling in Jurkat cells) EUB0000090b PTK2B; assay type: cell-based; conditions: at 1 µM
[4] = biological target: Mitogen-activated protein kinase kinase kinase kinase 1 (Homo sapiens) (UniProt Q92918); assay: Selectivity interaction (ActivX KiNativ screen (kinase selectivity in THP-1 cell lysates)) EUB0000639a MAP4K1; assay type: subcellular; conditions: lysate
[5] = biological target: Histone-lysine N-methyltransferase, H3 lysine-36 specific (Homo sapiens) (UniProt Q96L73); assay: Selectivity interaction (Methyltransferase screen (radiometric assays, panel of 8 PRMTs, 21 protein lysine methyltransferases, 3 DNA methyltransferases, and one RNA methyltransferase)) EUB0000272b NSD1; conditions: at 10 µM
[6] = biological target: T3, Mitogen-activated protein kinase kinase kinase kinase 3 (Homo sapiens) (UniProt Q8IVH8); assay: Selectivity interaction (KinomeScan (DiscoverX)) EUB0000229b MAP4K3; conditions: at 10 µM
T3 sequence (whole entry): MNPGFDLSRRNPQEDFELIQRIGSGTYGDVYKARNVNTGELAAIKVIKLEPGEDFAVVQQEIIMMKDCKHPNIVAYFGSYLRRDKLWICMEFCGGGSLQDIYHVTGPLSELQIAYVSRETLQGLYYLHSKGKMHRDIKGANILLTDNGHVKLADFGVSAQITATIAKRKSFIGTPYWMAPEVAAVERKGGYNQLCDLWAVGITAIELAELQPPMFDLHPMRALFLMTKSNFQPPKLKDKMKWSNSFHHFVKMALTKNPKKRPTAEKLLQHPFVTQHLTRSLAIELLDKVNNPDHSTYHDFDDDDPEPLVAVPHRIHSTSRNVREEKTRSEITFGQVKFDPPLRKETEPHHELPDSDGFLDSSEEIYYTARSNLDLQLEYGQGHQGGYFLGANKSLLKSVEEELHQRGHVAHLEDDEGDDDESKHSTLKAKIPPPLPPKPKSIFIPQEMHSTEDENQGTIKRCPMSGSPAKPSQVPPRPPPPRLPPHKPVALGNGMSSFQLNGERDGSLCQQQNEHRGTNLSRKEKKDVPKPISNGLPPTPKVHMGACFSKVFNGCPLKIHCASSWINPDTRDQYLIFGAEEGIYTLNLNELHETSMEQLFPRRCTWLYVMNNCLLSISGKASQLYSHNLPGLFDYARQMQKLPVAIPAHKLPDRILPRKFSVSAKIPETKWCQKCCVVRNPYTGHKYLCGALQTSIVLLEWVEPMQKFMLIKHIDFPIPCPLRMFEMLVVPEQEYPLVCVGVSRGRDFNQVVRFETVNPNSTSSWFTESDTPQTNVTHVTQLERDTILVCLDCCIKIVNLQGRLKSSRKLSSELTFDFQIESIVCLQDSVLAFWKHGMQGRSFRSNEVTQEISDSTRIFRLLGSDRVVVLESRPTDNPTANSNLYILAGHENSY

[7] = biological target: Non-receptor tyrosine-protein kinase TYK2 (Homo sapiens, UniProt P29597); assay: Selectivity interaction (KinomeScan (DiscoverX)) EUB0000229b TYK2; conditions: at 10 µM
Insulin receptor = Insulin receptor (Homo sapiens, UniProt P06213); assay: Selectivity interaction (Upstate Kinase Profiler service (Millipore)) EUB0000056c INSR; conditions: at 1 µM
[8] = biological target: Phosphatidylinositol 4-phosphate 5-kinase type-1 alpha (Homo sapiens) (UniProt Q99755); assay: Selectivity interaction (KinomeScan (DiscoverX)) EUB0001619a PIP5K1A; conditions: at 1 µM

Mitogen-activated protein kinase kinase kinase kinase 1 (Homo sapiens), sequence (Q92918 whole entry, looked up): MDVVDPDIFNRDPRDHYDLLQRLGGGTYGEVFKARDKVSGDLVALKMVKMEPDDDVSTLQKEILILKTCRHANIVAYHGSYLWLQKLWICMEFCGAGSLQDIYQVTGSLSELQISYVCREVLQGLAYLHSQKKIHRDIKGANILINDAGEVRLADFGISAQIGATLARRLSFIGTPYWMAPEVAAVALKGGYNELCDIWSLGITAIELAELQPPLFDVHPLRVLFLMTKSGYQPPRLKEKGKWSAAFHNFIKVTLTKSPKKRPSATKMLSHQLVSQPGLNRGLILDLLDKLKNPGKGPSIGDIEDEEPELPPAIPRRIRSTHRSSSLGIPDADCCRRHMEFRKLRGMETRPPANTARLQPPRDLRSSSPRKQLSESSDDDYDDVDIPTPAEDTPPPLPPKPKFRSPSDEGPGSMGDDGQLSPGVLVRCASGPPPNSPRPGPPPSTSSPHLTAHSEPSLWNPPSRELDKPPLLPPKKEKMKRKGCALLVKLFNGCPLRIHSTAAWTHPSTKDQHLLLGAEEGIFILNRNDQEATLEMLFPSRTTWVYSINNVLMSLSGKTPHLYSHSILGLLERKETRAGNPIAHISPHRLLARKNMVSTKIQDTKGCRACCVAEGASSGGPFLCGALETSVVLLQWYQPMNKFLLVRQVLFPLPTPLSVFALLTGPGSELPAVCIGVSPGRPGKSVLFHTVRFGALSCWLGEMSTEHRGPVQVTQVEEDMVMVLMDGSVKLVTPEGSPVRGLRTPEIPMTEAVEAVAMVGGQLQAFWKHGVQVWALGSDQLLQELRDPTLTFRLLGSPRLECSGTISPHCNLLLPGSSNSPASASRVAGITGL
Non-receptor tyrosine-protein kinase TYK2, sequence (P29597 whole entry): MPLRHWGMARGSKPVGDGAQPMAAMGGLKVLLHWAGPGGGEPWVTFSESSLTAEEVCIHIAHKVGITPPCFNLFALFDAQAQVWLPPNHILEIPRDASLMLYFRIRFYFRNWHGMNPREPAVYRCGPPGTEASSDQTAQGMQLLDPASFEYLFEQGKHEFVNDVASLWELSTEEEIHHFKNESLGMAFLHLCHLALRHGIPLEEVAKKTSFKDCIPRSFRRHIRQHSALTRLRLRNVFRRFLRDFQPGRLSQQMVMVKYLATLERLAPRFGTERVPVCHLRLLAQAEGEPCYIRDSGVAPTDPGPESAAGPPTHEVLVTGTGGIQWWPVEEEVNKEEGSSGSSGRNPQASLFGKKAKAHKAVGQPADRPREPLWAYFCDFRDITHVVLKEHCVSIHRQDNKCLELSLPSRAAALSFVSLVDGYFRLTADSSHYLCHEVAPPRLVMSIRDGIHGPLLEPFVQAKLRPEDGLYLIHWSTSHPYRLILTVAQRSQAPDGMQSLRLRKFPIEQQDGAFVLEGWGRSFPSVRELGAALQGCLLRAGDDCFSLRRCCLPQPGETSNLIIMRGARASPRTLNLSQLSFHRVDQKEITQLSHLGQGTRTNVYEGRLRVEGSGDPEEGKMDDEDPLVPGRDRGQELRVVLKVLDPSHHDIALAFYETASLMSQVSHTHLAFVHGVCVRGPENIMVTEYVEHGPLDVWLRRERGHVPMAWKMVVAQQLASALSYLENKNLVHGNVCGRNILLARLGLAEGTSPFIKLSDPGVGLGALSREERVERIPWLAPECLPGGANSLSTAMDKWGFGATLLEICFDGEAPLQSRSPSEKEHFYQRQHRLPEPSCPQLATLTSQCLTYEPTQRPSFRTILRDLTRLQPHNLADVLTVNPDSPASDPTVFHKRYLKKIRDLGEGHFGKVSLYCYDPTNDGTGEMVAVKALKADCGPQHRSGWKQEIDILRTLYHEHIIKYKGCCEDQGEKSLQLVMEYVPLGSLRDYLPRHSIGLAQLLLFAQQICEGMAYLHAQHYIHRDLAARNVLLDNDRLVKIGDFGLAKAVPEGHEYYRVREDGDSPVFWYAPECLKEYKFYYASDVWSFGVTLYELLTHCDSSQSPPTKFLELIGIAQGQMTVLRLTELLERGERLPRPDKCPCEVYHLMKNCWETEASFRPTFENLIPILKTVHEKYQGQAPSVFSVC
Histone-lysine N-methyltransferase, H3 lysine-36 specific (Homo sapiens), sequence (Q96L73 whole entry): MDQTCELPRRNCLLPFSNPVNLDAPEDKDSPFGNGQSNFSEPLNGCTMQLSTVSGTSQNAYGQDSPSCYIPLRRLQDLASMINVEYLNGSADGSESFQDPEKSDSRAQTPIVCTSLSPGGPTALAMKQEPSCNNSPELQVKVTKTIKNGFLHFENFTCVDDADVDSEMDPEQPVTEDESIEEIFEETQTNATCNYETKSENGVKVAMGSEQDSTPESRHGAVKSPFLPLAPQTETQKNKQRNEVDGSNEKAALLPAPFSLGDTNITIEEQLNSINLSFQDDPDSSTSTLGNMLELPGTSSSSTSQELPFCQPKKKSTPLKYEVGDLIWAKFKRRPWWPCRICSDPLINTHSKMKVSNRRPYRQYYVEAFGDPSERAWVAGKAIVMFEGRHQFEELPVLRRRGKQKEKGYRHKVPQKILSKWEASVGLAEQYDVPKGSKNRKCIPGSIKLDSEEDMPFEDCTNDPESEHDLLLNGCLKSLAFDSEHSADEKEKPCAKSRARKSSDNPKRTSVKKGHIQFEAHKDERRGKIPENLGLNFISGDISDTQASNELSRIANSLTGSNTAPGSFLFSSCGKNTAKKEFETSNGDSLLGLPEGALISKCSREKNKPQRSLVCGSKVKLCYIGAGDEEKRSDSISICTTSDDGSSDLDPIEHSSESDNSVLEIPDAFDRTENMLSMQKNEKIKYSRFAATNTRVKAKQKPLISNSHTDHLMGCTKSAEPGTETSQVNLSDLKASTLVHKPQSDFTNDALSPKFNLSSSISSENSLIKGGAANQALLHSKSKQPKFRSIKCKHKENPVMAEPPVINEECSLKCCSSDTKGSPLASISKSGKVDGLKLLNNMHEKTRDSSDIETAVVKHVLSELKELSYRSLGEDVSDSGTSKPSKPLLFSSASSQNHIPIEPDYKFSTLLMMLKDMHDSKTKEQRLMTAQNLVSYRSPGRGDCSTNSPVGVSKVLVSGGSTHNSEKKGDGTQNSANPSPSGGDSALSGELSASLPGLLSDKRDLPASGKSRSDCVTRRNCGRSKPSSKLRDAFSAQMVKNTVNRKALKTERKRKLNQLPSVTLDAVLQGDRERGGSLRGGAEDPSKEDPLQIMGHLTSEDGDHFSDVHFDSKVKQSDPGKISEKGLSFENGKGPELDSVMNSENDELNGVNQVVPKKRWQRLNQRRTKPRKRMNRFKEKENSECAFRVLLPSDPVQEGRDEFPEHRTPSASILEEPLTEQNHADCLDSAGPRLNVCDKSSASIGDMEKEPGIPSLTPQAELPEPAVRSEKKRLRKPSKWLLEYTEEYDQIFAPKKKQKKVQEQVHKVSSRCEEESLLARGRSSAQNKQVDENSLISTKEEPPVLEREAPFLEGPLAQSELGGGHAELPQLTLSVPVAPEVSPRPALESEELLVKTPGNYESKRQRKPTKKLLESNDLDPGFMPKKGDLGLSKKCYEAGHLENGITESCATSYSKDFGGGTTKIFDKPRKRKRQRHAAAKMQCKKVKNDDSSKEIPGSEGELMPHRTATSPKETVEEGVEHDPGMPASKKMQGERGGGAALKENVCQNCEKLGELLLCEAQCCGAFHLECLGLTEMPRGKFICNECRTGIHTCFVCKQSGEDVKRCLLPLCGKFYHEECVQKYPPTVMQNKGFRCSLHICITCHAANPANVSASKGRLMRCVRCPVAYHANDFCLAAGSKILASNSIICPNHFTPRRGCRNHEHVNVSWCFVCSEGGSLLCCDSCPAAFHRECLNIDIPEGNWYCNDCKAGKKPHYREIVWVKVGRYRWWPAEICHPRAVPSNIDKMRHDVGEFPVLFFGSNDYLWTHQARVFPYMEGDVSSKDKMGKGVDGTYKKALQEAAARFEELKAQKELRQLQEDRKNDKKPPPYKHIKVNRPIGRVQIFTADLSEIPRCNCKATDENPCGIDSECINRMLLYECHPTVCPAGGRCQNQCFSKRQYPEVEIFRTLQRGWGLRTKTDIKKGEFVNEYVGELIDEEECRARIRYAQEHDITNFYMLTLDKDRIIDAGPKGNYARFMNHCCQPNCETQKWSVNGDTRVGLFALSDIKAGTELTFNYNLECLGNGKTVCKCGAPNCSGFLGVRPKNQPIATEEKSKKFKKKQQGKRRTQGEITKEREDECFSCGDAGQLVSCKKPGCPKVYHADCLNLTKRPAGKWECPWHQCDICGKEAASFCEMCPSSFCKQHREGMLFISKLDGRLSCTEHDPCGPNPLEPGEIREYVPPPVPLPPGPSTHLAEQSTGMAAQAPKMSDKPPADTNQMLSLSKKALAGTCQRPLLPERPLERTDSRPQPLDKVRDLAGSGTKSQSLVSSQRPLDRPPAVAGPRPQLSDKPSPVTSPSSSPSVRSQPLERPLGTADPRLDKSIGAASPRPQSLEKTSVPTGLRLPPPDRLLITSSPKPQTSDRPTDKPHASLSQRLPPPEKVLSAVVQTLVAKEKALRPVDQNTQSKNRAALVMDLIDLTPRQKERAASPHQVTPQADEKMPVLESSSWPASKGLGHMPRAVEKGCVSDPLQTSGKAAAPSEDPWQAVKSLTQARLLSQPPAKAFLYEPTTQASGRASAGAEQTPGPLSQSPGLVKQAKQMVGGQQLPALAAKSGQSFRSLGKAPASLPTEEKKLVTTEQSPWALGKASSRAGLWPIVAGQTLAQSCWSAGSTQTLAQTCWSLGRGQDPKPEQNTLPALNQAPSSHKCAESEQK

SMILES: COc1cc(Nc2nc(C)cc(-c3cnn4nc(OC)ccc34)n2)cc(C(F)(F)F)c1
% of control [1]: 70%

SMILES: CN(C)C/C=C/C(=O)Nc1ccc(C(=O)N2CCCC(Nc3ncc(Cl)c(-c4c[nH]c5ccccc45)n3)C2)cc1 (stereo not drawn)
% of control [2]: 97%
% of control [3]: 93%

% of inhibition ([4]; at 0.01 µM): 9.7%
% of inhibition ([4]; at 0.04 µM): -10.3%
% of inhibition ([4]; at 0.2 µM): -26.5%
% of inhibition ([4]; at 1 µM): -6.5%
% of inhibition ([4]; at 5 µM): -18.1%
SMILES: CC[C@@H]1[C@H](F)C(=O)N[C@@H]1COc1nccc2cc(C(N)=O)c(OC)cc12 [ZIMLOVISERTIB]

% of activity [5]: 104%
SMILES: Cc1cc(C)cc([C@H]2c3cc(C)ccc3NC(=O)CN2C(=O)c2ccc(Br)s2)c1

SMILES: COc1cc(N(C)c2ccnc3ccc(C(F)(F)F)cc23)cc(OC)c1OC
% binding [6]: 87%
% binding [7]: 89%

% of inhibition (Insulin receptor): 5%
SMILES: Cc1ccc(-c2ccc3c(ccc4sc5c(c43)NC[C@@H](C)NC5=O)n2)cn1

SMILES: N#Cc1cccc(-c2c[nH]c3ncnc(N4CCOCC4)c23)c1
% of control [8]: 20%

— ChEMBL document CHEMBL5465560, “Selectivity Literature for EUbOPEN Chemogenomic Library” (2024)
